Experimental data published in ChEMBL document CHEMBL1221363, “Cytotoxicity of new pyrazino[1,2-b]isoquinoline and 6,15-iminoisoquino[3,2-b]3-benzazocine compounds” (2010).

Legend:
Assay type in all cases: functional
MDA-MB-231 = assay: Cytotoxicity against human MDA-MB-231 cells after 48 hrs by SRB assay; conditions: MDA-MB-231, 48 h; for CC50: read-out: LC50 (the source's name)
A549 = assay: Cytotoxicity against human A549 cells after 48 hrs by SRB assay; conditions: A549, 48 h
HT-29 = assay: Cytotoxicity against human HT-29 cells after 48 hrs by SRB assay; conditions: HT-29, 48 h

SMILES | GI50 (MDA-MB-231) | TGI (MDA-MB-231) | CC50 (MDA-MB-231) | GI50 (A549) | LC50 (concentration causing 50% net cell kill) (A549) | TGI (A549) | GI50 (HT-29) | LC50 (HT-29) | TGI (HT-29)
COc1c(C)c(OC)c(OC)c2c1C[C@H]1[C@@H](OC)N(C(=O)OC(C)C)CC(=O)N1[C@H]2COCc1ccccc1 | 12.3 µM | > 18.4 µM | > 18.4 µM | 11.2 µM | > 18.4 µM | > 18.4 µM | 0.195 µM | 0.527 µM | 0.273 µM
COc1c(C)c(OC)c(OC)c2c1C[C@H]1CN(C(=O)OC(C)(C)C)CC(=O)N1[C@H]2COCc1ccccc1 | 14.1 µM | > 19 µM | > 19 µM | 8.82 µM | > 19 µM | > 19 µM | 8.66 µM | > 18.4 µM | > 18.4 µM
COc1c(C)c(OC)c(OC)c2c1C[C@H]1CN(C(=O)OC(C)C)[C@@H](Cc3ccccc3)C(=O)N1[C@H]2COCc1ccccc1 | > 16.6 µM | > 16.6 µM | > 16.6 µM | > 16.6 µM | > 16.6 µM | > 16.6 µM | 16.3 µM | > 16.3 µM | > 16.3 µM
COc1c(C)c(OC)c(OC)c2c1C[C@H]1CN(C(=O)OC(C)(C)C)[C@@H](Cc3ccccc3)C(=O)N1[C@H]2COCc1ccccc1 | 7.13 µM | 10.5 µM | > 16.2 µM | 7.3 µM | > 16.2 µM | > 16.2 µM | 9.13 µM | > 16.6 µM | > 16.6 µM
COc1c(C)c(OC)c(OC)c2c1C[C@H]1CN(C)[C@@H](Cc3ccccc3)C(=O)N1[C@H]2COCc1ccccc1 | > 18.8 µM | > 18.8 µM | > 18.8 µM | 12.2 µM | > 18.8 µM | > 18.8 µM | 13 µM | > 16.2 µM | > 16.2 µM
COc1c(C)c(OC)c(OC)c2c1C[C@H]1[C@@H](OC)N(C(=O)OC(C)C)[C@@H](Cc3ccccc3)C(=O)N1[C@H]2COCc1ccccc1 | 12.2 µM | > 15.8 µM | > 15.8 µM | 11.1 µM | > 15.8 µM | > 15.8 µM | 11.3 µM | > 18.8 µM | > 18.8 µM
COc1ccc(C[C@H]2C(=O)N3[C@@H](COCc4ccccc4)c4c(c(OC)c(C)c(OC)c4OC)C[C@H]3[C@@H](OC)N2C(=O)OC(C)C)cc1OC | 9.53 µM | > 14.4 µM | > 14.4 µM | 6.21 µM | > 14.4 µM | > 14.4 µM | 12.3 µM | > 15.8 µM | > 15.8 µM
COc1ccc(C[C@H]2C(=O)N3[C@@H](COCc4ccccc4)c4c(c(OC)c(C)c(OC)c4OC)C[C@H]3[C@@H](OC)N2C(=O)OC(C)(C)C)cc1OC | > 14.1 µM | > 14.1 µM | > 14.1 µM | 9.2 µM | > 14.1 µM | > 14.1 µM | 9.38 µM | > 14.4 µM | > 14.4 µM
COc1cc(C[C@@H]2NCC3=Cc4c(OC)c(C)c(OC)c(OC)c4[C@H](COC(=O)c4cccc5ccccc45)N3C2=O)c(OC)c(C)c1OC | 8.79 µM | > 14.6 µM | > 14.6 µM | 2.78 µM | > 14.6 µM | > 14.6 µM | 7.64 µM | > 14.1 µM | > 14.1 µM
COc1cc(C[C@H]2NC=C3Cc4c(OC)c(C)c(OC)c(OC)c4[C@H](COC(=O)/C=C/c4ccccc4)N3C2=O)c(OC)c(C)c1OC | 10.6 µM | > 15.2 µM | > 15.2 µM | 6.53 µM | > 15.2 µM | > 15.2 µM | 11.1 µM | > 14.6 µM | > 14.6 µM
COc1c(C)c(OC)c(OC)c2c1C[C@H]1[C@H]3c4ccccc4C[C@@H](C(=O)N1[C@H]2COCc1ccccc1)N3C(=O)OC(C)C | 8.32 µM | > 16.6 µM | > 16.6 µM | > 16.6 µM | > 16.6 µM | > 16.6 µM | 12.3 µM | > 15.2 µM | > 15.2 µM
COc1c(C)c(OC)c(OC)c2c1C[C@H]1[C@H]3c4ccccc4C[C@@H](C(=O)N1[C@H]2CO)N3C(=O)OC(C)C | 17.6 µM | > 19.6 µM | > 19.6 µM | > 19.6 µM | > 19.6 µM | > 19.6 µM | 14 µM | > 16.6 µM | > 16.6 µM
COc1c(C)c(OC)c(OC)c2c1C[C@H]1N[C@@H]2[C@@H]2Cc3c(OC)c(C)c(OC)c(OC)c3[C@H](COC(=O)c3cccc4ccccc34)N2C1=O | 10.3 µM | > 14.6 µM | > 14.6 µM | 7.32 µM | > 14.6 µM | > 14.6 µM | 6.67 µM | > 18 µM | > 18 µM
COc1c(C)c(OC)c(OC)c2c1C[C@H]1CN(C(=O)OC(C)C)CC(=O)N1[C@H]2COCc1ccccc1 | – | – | – | – | – | – | 8.32 µM | – | 9.84 µM
COc1c(C)c(OC)c(OC)c2c1C[C@H]1[C@@H](O)N(C(=O)OC(C)C)CC(=O)N1[C@H]2COCc1ccccc1 | – | – | – | – | – | – | – | > 1.31 µM | –
CCCN1CC(=O)N2[C@@H](Cc3c(OC)c(C)c(OC)c(OC)c3[C@@H]2COCc2ccccc2)C1 (relative stereo) | 16.6 µM | > 21.3 µM | > 21.3 µM | 10 µM | > 21.3 µM | > 21.3 µM | 11.2 µM | > 19 µM | > 19 µM
COc1c(C)c(OC)c(OC)c2c1C[C@H]1CN(Cc3ccccc3)CC(=O)N1[C@H]2COCc1ccccc1 (relative stereo) | 11.2 µM | > 19.4 µM | > 19.4 µM | 7.16 µM | > 19.4 µM | 16.1 µM | 12 µM | > 21.3 µM | > 21.3 µM
COc1c(C)c(OC)c(OC)c2c1C[C@@H]1N[C@H]2[C@@H]2Cc3c(OC)c(C)c(OC)c(OC)c3[C@H](CO)N2C1=O (relative stereo) | 16.1 µM | > 18.9 µM | > 18.9 µM | > 18.9 µM | > 18.9 µM | > 18.9 µM | 12.3 µM | > 15.1 µM | > 15.1 µM
COc1c(C)c(OC)c(OC)c2c1C[C@H]1[C@@H]3N[C@@H](Cc4ccccc43)C(=O)N1[C@H]2COC(=O)/C=C/c1ccccc1 (relative stereo) | 15 µM | > 18 µM | > 18 µM | 1.05 µM | > 18 µM | > 18 µM | 6.22 µM | > 17.3 µM | > 17.3 µM
COc1c(C)c(OC)c(OC)c2c1C[C@H]1[C@H](C#N)N3[C@@H](CO)c4c(c(OC)c(C)c(OC)c4OC)C[C@H]3[C@@H]2N1C (relative stereo) | 4.7 µM | 9.03 µM | 14.1 µM | 3.43 µM | 13.2 µM | 8.13 µM | 7.12 µM | 15.1 µM | 10.5 µM
COc1c(C)c(OC)c(OC)c2c1C[C@H]1[C@H]3c4ccccc4C[C@@H]([C@H](C#N)N1[C@H]2COC(=O)/C=C/c1cccc(C(F)(F)F)c1)N3C (relative stereo) | 2.47 µM | 2.62 µM | 2.78 µM | 2.32 µM | 3.86 µM | 2.93 µM | 3.25 µM | 6.5 µM | 4.52 µM
